Assay results: patent US5670492A, “DC-89 derivatives” (priority 1994, dated 1997)
pIC50: −log10 of the molar value. Values after ≈ are worked out from the molar mass of the structure shown. Read-outs that look alike come from different tables or passages of the source.

Assays:
HeLaS3 cells = assay: Growth Inhibitory Effect Against HeLaS3 cells; type: cell-based; conditions: Homo sapiens
Procedure: HeLaS3 cells were suspended in MEM medium containing 10% calf serum and 2 mM glutamine to a concentration of 2.67×10^4 cells/mi. The cell suspension thus prepared was put into wells of a 24-well culture plate in an amount of 0.75 ml per well. After the cells were incubated in a CO2 incubator overnight at 37° C., Compound (I) which had been appropriately diluted with a culture medium was added to each well in an amount of 0.25 ml.
The cells were further incubated in the CO2 incubator for 72 hours, and the culture supernatant was removed. Then, the cells were dispersed in a solution of trypsin and EDTA and recovered. The number of cells was counted using a cell counter. The concentration (IC50) of Compound (I) at which the growth of the cells is inhibited by 50% was calculated by comparing the number of untreated cells with the number of the cells treated with Compound (I) at known concentrations.

ddY-strain male mice = assay: Acute Toxicity; type: in vivo; conditions: i.v., mortality at 14 days after administration
Procedure: Compound (I) was intravenously administered to ddY-strain male mice each weighing 20±1 g. MLD (minimum lethal dose) was determined by observing the mortality at 14 days after administration.

[1] = Test for Solubility in Water; type: physicochemical; conditions: room temperature
Procedure: A sample tube was charged with 0.7 mg of Compound (I), and 30 μl of water were added thereto at room temperature. The mixture was stirred, and the solubility in water was measured. When the compound was not dissolved, 30 μl of water was added thereto successively, and the mixture was stirred. The solubility in water was measured when the compound was dissolved.

Sarcoma 180 tumor = assay: Therapeutic Effect Against Sarcoma 180 Tumor; type: in vivo, male ddY-strain mice; conditions: Mus musculus, Sarcoma-180, iv, 168 h, read-out: T/C
Procedure: Five male ddY-strain mice each weighing 18-20 g were used for each group as test animals, and 5×10^5 Sarcoma 180 tumor cells were implanted at the axilla subcutaneously. One day after the implantation, 0.2 ml of a physiological saline containing Compound (I) at the concentration shown in Table 2 was intravenously administered to each mouse. T/C [T: average tumor volume (mm^3) of the group treated with the test compound, C: average tumor volume (mm^3) of the control group (to which […] of a physiological saline was intravenously administered)] was determined seven days after the implantation.

[2] = HeLa S3, 72 hours, read-out: IC50
[3] = 1.0 mg/kg, single i.v. one day after s.c. implantation, tumor volume ratio seven days after implantation

| Compound | pIC50 (HeLaS3 cells; [2]) | MLD (minimum lethal dose) (ddY-strain male mice) [mg/kg] | pIC50 (HeLaS3 cells; HeLa S3, 72 h) | solubility [1] [mg/mL] | other results |
| --- | --- | --- | --- | --- | --- |
| COC(=O)c1c(C)[nH]c2c1C13CC1CN(C(=O)/C=C/c1ccc(OC)nc1)C3=CC2=O (stereo not drawn) [Compound 1] | 9.38 |  |  |  |  |
| COC(=O)c1c(C)[nH]c2c(OC(=O)N3CCN(C)CC3)cc3c(c12)C(CBr)CN3C(=O)/C=C/c1ccc(OC)nc1 (stereo not drawn) [Compound 3] |  | 1.0 | 6.96 | > 20 | response vs control in vivo at 1 mg/kg (Sarcoma 180 tumor): 36% |
| COC(=O)Oc1cc2c(c3c(C(=O)OC)c(C)[nH]c13)C(CBr)CN2C(=O)/C=C/c1ccc(OC)nc1 (stereo not drawn) [Compound 4] |  | 0.50 | 9.15 |  | response vs control in vivo at 0.5 mg/kg (Sarcoma 180 tumor): 35% |
| COC(=O)c1c(C)[nH]c2c1C13CC1CN(C(=O)/C=C/c1cnc(OC)nc1)C3=CC2=O (stereo not drawn) [Compound 6] | 9.05 |  |  |  |  |
| COC(=O)c1c(C)[nH]c2c(OC(=O)N3CCN(C)CC3)cc3c(c12)C(CBr)CN3C(=O)/C=C/c1cnc(OC)nc1 (stereo not drawn) [Compound 8] |  | 4.0 | 6.77 | > 20 | response vs control in vivo at 2 mg/kg (Sarcoma 180 tumor): 26% |
| COC(=O)c1c(C)[nH]c2c(OC(C)=O)cc3c(c12)C(CBr)CN3C(=O)/C=C/c1cnc(OC)nc1 (stereo not drawn) [Compound 11] |  | 1.0 | 9.04 |  | response vs control in vivo at 1 mg/kg (Sarcoma 180 tumor): 17% |
| COC(=O)c1c(C)[nH]c2c1C13CC1CN(C(=O)/C=C/c1ccc(OC)nn1)C3=CC2=O (stereo not drawn) [Compound 12] | 9.55 |  |  |  |  |
| COC(=O)c1c(C)[nH]c2c(OC(=O)N3CCN(C)CC3)cc3c(c12)C(CBr)CN3C(=O)/C=C/c1ccc(OC)nn1 (stereo not drawn) [Compound 14] |  | 0.50 | 7.05 | > 20 | response vs control in vivo at 1 mg/kg (Sarcoma 180 tumor): 31% |
| COC(=O)c1c(C)[nH]c2c(OC(=O)N3CCN(C)CC3)cc3c(c12)C(CBr)CN3C(=O)/C=C/c1ccc(OC)cn1 (stereo not drawn) [Compound 17] |  |  |  | > 20 |  |
| COC(=O)c1c(C)[nH]c2c1C13CC1CN(C(=O)COc1ccc(OC)cc1)C3=CC2=O (stereo not drawn) [Compound 18] | 9.72 |  |  |  |  |
| COC(=O)c1c(C)[nH]c2c(OC(=O)N3CCN(C)CC3)cc3c(c12)C(CBr)CN3C(=O)COc1ccc(OC)cc1 (stereo not drawn) [Compound 20] |  | 0.50 | 7.03 |  | response vs control in vivo at 0.5 mg/kg (Sarcoma 180 tumor): 20% |
| COC(=O)c1c(C)[nH]c2c1C13CC1CN(C(=O)COc1ccc(OC(F)(F)F)cc1)C3=CC2=O (stereo not drawn) [Compound 23] | 8.80 |  |  |  |  |
| COC(=O)c1c(C)[nH]c2c(OC(=O)N3CCN(C)CC3)cc3c(c12)C(CBr)CN3C(=O)COc1ccc(OC(F)(F)F)cc1 (stereo not drawn) [Compound 25] |  | 4.0 | 5.96 | 0.2 (≈ 0.293 mM) | response vs control in vivo at 2 mg/kg (Sarcoma 180 tumor): 12% |
| COC(=O)c1c(C)[nH]c2c1C13CC1CN(C(=O)/C=C/c1ccc(NC(=O)OC(C)(C)C)cc1)C3=CC2=O (stereo not drawn) [Compound 26] | 9.25 |  |  |  |  |
| COC(=O)c1c(C)[nH]c2c1C13CC1CN(C(=O)/C=C/c1ccc(N(C)C)cc1)C3=CC2=O (stereo not drawn) [Compound 27] | 8.80 |  |  |  |  |
| COC(=O)c1c(C)[nH]c2c1C13CC1CN(C(=O)/C=C/c1ccc(N)cc1)C3=CC2=O (stereo not drawn) [Compound 28] | 8.59 |  |  |  |  |
| COC(=O)c1c(C)[nH]c2c1C13CC1CN(C(=O)/C=C/c1ccc(OC)c(OCCCN)c1)C3=CC2=O (stereo not drawn) [Compound 30] | 8.85 |  |  |  |  |
| COC(=O)c1c(C)[nH]c2c(OC(=O)N3CCN(C)CC3)cc3c(c12)C(CBr)CN3C(=O)/C=C/c1ccc(OC)c(OCCCN)c1 (stereo not drawn) [Compound 32] |  |  |  | > 20 |  |
| COC(=O)COc1cc(/C=C/C(=O)N2CC3CC34C2=CC(=O)c2[nH]c(C)c(C(=O)OC)c24)ccc1OC (stereo not drawn) [Compound 34] | 9.07 |  |  |  |  |
| COC(=O)c1c(C)[nH]c2c1C13CC1CN(C(=O)/C=C/c1ccc(OC)c(N)c1)C3=CC2=O (stereo not drawn) [Compound 37] | 9.28 |  |  |  |  |
| COC(=O)Oc1cc2c(c3c(C(=O)OC)c(C)[nH]c13)C(CBr)CN2C(=O)/C=C/c1ccc(OC)c(N)c1 (stereo not drawn) [Compound 38] | 9.17 |  |  |  |  |

| Compound | pIC50 (HeLaS3 cells; [2]) | MLD (minimum lethal dose) (ddY-strain male mice) [mg/kg] | pIC50 (HeLaS3 cells; HeLa S3, 72 h) | solubility [1] [mg/mL] | other results |
| --- | --- | --- | --- | --- | --- |
| COC(=O)c1c(C)[nH]c2c(OC(=O)N3CCN(C)CC3)cc3c(c12)C(CBr)CN3C(=O)/C=C/c1ccc(OC)c(N)c1 (stereo not drawn) [Compound 40] |  |  |  | > 20 |  |
| COC(=O)c1c(C)[nH]c2c1C13CC1CN(C(=O)/C=C/c1ccc(OC)c(N(C)C)c1)C3=CC2=O (stereo not drawn) [Compound 41] | 9.04 |  |  |  |  |
| COC(=O)c1c(C)[nH]c2c(OC(=O)N3CCN(C)CC3)cc3c(c12)C(CBr)CN3C(=O)/C=C/c1ccc(OC)c(N(C)C)c1 (stereo not drawn) [Compound 43] |  | 4.0 | 7.28 | < 0.5 | response vs control in vivo at 2 mg/kg (Sarcoma 180 tumor): 13% |
| COC(=O)c1c(C)[nH]c2c(OC(C)=O)cc3c(c12)C(CBr)CN3C(=O)/C=C/c1ccc(OC)c(N(C)C)c1 (stereo not drawn) [Compound 45] |  | 1.0 | 9.27 | > 20 | response vs control in vivo at 1 mg/kg (Sarcoma 180 tumor): 20% |
| CCN(CC)c1cc(/C=C/C(=O)N2CC(CBr)c3c2cc(OC(=O)N2CCN(C)CC2)c2[nH]c(C)c(C(=O)OC)c32)ccc1OC (stereo not drawn) [Compound 49] |  | > 8.0 | 6.55 | > 20 | response vs control in vivo at 8 mg/kg (Sarcoma 180 tumor): 20% |
| COC(=O)c1c(C)[nH]c2c(OC(C)=O)cc3c(c12)C(CCl)CN3C(=O)/C=C/c1ccc(OC)c(N(C)C)c1 (stereo not drawn) [Compound 51] | 9.34 | 4.0 |  | > 10 | response vs control in vivo at 4 mg/kg (Sarcoma 180 tumor; 4.0 mg/kg, single i.v. one day after s.c. implantation, tumor volume ratio seven days after implantation): 14% |
| COC(=O)c1c(C)[nH]c2c(OC(=O)N(C)N)cc3c(c12)C(CBr)CN3C(=O)/C=C/c1ccc(OC)c(N(C)C)c1 (stereo not drawn) [Compound 53] |  | 2.0 | 8.92 |  | response vs control in vivo at 2 mg/kg (Sarcoma 180 tumor): 7% |
| COC(=O)c1c(C)[nH]c2c(OC(=O)c3ccc(N(C)C)cc3)cc3c(c12)C(CBr)CN3C(=O)/C=C/c1ccc(OC)c(N(C)C)c1 (stereo not drawn) [Compound 56] |  | 1.0 | 8.66 |  | response vs control in vivo at 1 mg/kg (Sarcoma 180 tumor): 36% |
| COC(=O)c1c(C)[nH]c2c(OC(=O)c3nccnc3N)cc3c(c12)C(CBr)CN3C(=O)/C=C/c1ccc(OC)c(N(C)C)c1 (stereo not drawn) [Compound 58] |  |  |  | > 20 |  |
| COC(=O)c1c(C)[nH]c2c(OC(=O)c3cccnc3)cc3c(c12)C(CBr)CN3C(=O)/C=C/c1cnc(OC)nc1 (stereo not drawn) [Compound 67] |  | 1.0 | 8.92 |  | response vs control in vivo at 1 mg/kg (Sarcoma 180 tumor): 26% |
| COC(=O)c1c(C)[nH]c2c(OC(=O)NN3CCN(C)CC3)cc3c(c12)C(CBr)CN3C(=O)/C=C/c1cnc(OC)nc1 (stereo not drawn) [Compound 71] |  |  | 8.82 | > 10 | response vs control in vivo at 2 mg/kg (Sarcoma 180 tumor): 30% |
| COC(=O)c1c(C)[nH]c2c(OC(=O)CSCC(=O)O)cc3c(c12)C(CBr)CN3C(=O)/C=C/c1cnc(OC)nc1 (stereo not drawn) [Compound 73] | 8.92 |  |  | < 0.1 | response vs control in vivo at 1 mg/kg (Sarcoma 180 tumor; [3]): 36% |
| COC(=O)c1c(C)[nH]c2c(OC(=O)N(C)N)cc3c(c12)C(CBr)CN3C(=O)/C=C/c1cnc(OC)nc1 (stereo not drawn) [Compound 74] |  |  | 8.62 |  | response vs control in vivo at 1 mg/kg (Sarcoma 180 tumor): 37% |
| COC(=O)c1c(C)[nH]c2c(OC(=O)c3ccc(CN4CCN(C)CC4)cc3)cc3c(c12)C(CBr)CN3C(=O)/C=C/c1cnc(OC)nc1 (stereo not drawn) [Compound 76] | 8.89 |  |  | > 10 | response vs control in vivo at 1 mg/kg (Sarcoma 180 tumor; [3]): 25% |
| COC(=O)c1c(C)[nH]c2c(OC(=O)c3cccnc3)cc3c(c12)C(CBr)CN3C(=O)/C=C/c1ccc(N(C)C)cc1 (stereo not drawn) [Compound 77] |  | 4.0 | 9.35 |  | response vs control in vivo at 4 mg/kg (Sarcoma 180 tumor): 19% |
| COC(=O)c1c(C)[nH]c2c(OC(=O)N3CCN(C)CC3)cc3c(c12)C(CBr)CN3C(=O)/C=C/c1ccc(N(C)C)cc1 (stereo not drawn) [Compound 79] |  |  | 7.28 | > 20 | response vs control in vivo at 8 mg/kg (Sarcoma 180 tumor): 22% |
| COC(=O)c1c(C)[nH]c2c(O)cc3c(c12)C(CCl)CN3C(=O)/C=C/c1ccc(OC)c(N(C)C)c1 (stereo not drawn) [Compound 80] | 9.36 |  |  | > 15 |  |
| COC(=O)c1c(C)[nH]c2c(O)cc3c(c12)C(CBr)CN3C(=O)/C=C/c1ccc(OC)c(N(C)C)c1 (stereo not drawn) [Compound 81] | 9.30 |  |  | 2.5 (≈ 4.61 mM) |  |
| COC(=O)c1c(C)[nH]c2c(OC(=O)CN3CCN(C)CC3)cc3c(c12)C(CBr)CN3C(=O)/C=C/c1ccc(OC)c(N(C)C)c1 (stereo not drawn) [Compound 82] |  | 2.0 | 9.30 | > 10 |  |
| COC(=O)c1c(C)[nH]c2c(OC(=O)CN3CCC(N4CCCCC4)CC3)cc3c(c12)C(CBr)CN3C(=O)/C=C/c1ccc(OC)c(N(C)C)c1 (stereo not drawn) [Compound 83] | 9.23 |  |  | > 20 |  |
